Laboratory results published in patent US6476039B1, “Ophthalmic composition” (R-Tech Ueno, Ltd., priority 1998, dated 2002).

Assays:
Format in all cases: in vivo, rabbit
[1] = test system: alloxan-induced diabetic rabbits; experiment: Repair of the wound of keratoepithelial detachment in alloxan-induced diabetic rabbits; conditions: 0.1% eye drop, 30 μL/eye every 4 hours, area immediately after detachment = 100, mean±S.E.
Protocol: Alloxan monohydrate (Lot No. DLJ5619, M.W. 160.09: Wako Pure Chemical Industries, LTD.) of 80 mg/kg was dissolved in 2 mL of physiological saline, and the solution was administered once intravenously of male Japanese albino rabbits [Std: JW/CSK] (11-week-old) to induce diabetes.
Blood glucose was determined weekly after administration of alloxan monohydrate: the mean blood glucose was increased from 142.2±4.7 mg/dL (mean±S.E.; The same is applicable hereinafter.) before administration to 522.5±13.7 mg/dL at 1 week, and this elevated level persisted thereafter. Animals with this alloxan-induced diabetes were used in the experiment. […]
The cornea was stained with fluorescein, and photographs of the anterior ocular segment were taken with the Medical Nikkor Lens attached with a yellow filter (Kodak WRATTEN No.12) and the front part of the flash attached with a blue filter (Kodak WRATTEN No.47). On the projected photographs magnified to the same degree, the stained area was measured with the planimeter. […]
Twelve hours after the keratoepithelial detachment, the area of the wound was measured. Then its relative value was calculated by taking the area of the wound immediately after the keratoepithelial detachment as 100. […]

[2] = test system: normal (not diabetic) rabbits; experiment: Repair of the wound of keratoepithelial detachment in normal rabbits; conditions: 0.2% eye drops, 30 μL/eye every 4 hours, area immediately after detachment = 100
Description: In the Experimental Example 1, the influence in rabbits with alloxan-induced diabetes was investigated, while the influence in normal (not diabetic) rabbits was investigated in this Example.
Ten-week-old male New Zealand White rabbits (weighing 2.07±0.11 kg: mean weight at the start of the experiment) were acclimation period for 7 days, while the animals were examined for the general signs including diarrhea and body weight, etc., and the anterior ocular segment was also observed. Only animals without any abnormality were used in the experiment.
Keratoepithelial detachment wounds were prepared as described in the Experimental Example 1.
The test substance was instilled every 4 hours after the keratoepithelial detachment (the first instillation was made immediately after preparation of the wound of keratoepithelial detachment).
Twelve hours after the keratoepithelial detachment, the area of the wound was measured, and its relative value was calculated by taking the area of the wound immediately after the keratoepithelial detachment as 100, and the relative value was used to assess the extent of repair. The area of the wound of keratoepithelial detachment was measured as described in the Experimental Example 1. […]

[3] = test system: alloxan-induced diabetic rabbits; experiment: Examination of corneal esthesia (Cochet-Bonnet esthesiometer) in alloxan-induced diabetic rabbits
Protocol: (§1) Alloxan monohydrate (Lot No. DLJ5619, M.W. 160.09 Wako Pure Chemical Industries, LTD.) of 80 mg/kg was dissolved in 2 mL of physiological saline, and the solution was administered once intravenously of male Japanese albino rabbits [Std: JW/CSK] (11-week-old) to induce diabetes.
(§2) Blood glucose was determined once a week on 4 times after administration of alloxan monohydrate: animals having always blood glucose of 300 mg/dL or more were used as diabetic animals in this Experiment.
(§3) [3-(4-Bromo-2-fluorobenzyl)-7-chloro-2,4-dioxo- 1,2,3,4-tetrahydroquinazolin- 1-yl]acetate, an active ingredient of this invention, having aldose reductase-inhibiting effect was used for preparation of a 0.3% eye drops, and the eye drops were used as the test substance. The vehicle control was the vehicle of the eye drops simply without the active ingredient.
At the time of intravenous administration of alloxan, the drug was instilled into both eyes at 30 μL/eye four times a day over 4 consecutive weeks. Sixteen eyes of 8 animals in each of the test substance group and the vehicle control group were subjected to the examination of corneal esthesia and the examination of tear secretion as follows.
One hour after the second instillation on the day of examination, each animal was fixed in a stainless steel fixator (SHIBATA GLASS WORKS). The central part, the most sensitive part, of the cornea was stimulated 10 times in rapid sequence with a pressure by applying at the right angle a 30 mm nylon thread (Toray Nylon Monofilament, Type 100, No.0.6, diameter φ: 0.027mm, cross section s: 0.0129) of the Cochet-Bonnet type esthesiometer (Handaya Co., Ltd.) so that the nylon thread might be bent only slightly (pressure: […], measured by Handaya), and the number of blink reflex was taken as the corneal esthesia value. The examination was performed before, 2 weeks after and 4 weeks after administration of alloxan.
In both examinations, the test substance group and the vehicle control group were compared with the Williams's test.

[4] = test system: alloxan-induced diabetic rabbits; experiment: Examination of tear secretion (Schirmer's test) in alloxan-induced diabetic rabbits; conditions: 1 minute
Protocol: as §1, §2, §3
At the time of intravenous administration of alloxan, the drug was instilled into both eyes at 30 μL/eye four times a day over 4 consecutive weeks. […]
One hour after the second instillation on the day of examination, each animal was fixed in a stainless steel fixator, and the edge of the Schirmer's test paper (SHOWA YAKUHIN KAKO, Co., Ltd., Lot No.70080) was inserted into the conjunctival sac to cover the ⅓ of the lower eyelid on the ear side. One minute after, the paper was removed, and the length of the moistened part was read from the scale on the paper. […]

[5] = test system: rabbits with dry eye syndrome induced by trigeminal denervation; experiment: Basal tear secretion in rabbits with dry eye syndrome induced by trigeminal denervation
Description: (§4) Twenty male Japanese albino rabbits [Std:JW/CSK] were used.
(§5) Urethane (ALDRICH, Lot No.069110Q) was intraperitoneally administered at the dose of 1 g/kg to rabbits of which hair at the head after anesthesia had been shaved.
(§6) After disinfection of the shaved area, midline incision of the skin was made from the frontal bone to the ear root, and the periosteum and the muscular tissue around the temporal bone and mandibular articular process were detached. After the detachment, a hole of 2×1.5 cm in size was made in the bone from the parietal medial region to the temporal region by using a bone drill (URAWA KOGYO Co., Ltd., MINITOR.C-130) under the surgical microscope (KONAN CAMERA R& I Inc., PMO-50). Then the dura was detached from the cranial bone while cotton was kept inserted between the temporal bone and the dura. After the detachment was made up to the cranial base, detachment was further made toward the medial border of the petrous part of temporal bone in the cranial cavity, to find the trigeminal nerve in the petrous part. Then the dura of about 1 to 2 mm on the nasal side of the semilunar ganglion was incised. After the incision, the two branches of nerve fascicle, i.e. the first branch of the trigeminal nerve (ocular nerve) and the second branch (maxillary nerve), were pulled laterally and cut with corneoscleral scissors. After confirmation of miosis of the ipsilateral eye immediately after the cut, the cotton kept inserted was removed, and the skin at the head was closed with suture. After the operation, an antibiotic (MYCILLIN SOL®: Meiji) was administered intramuscularly at the dose of 0.1 mL/kg.
(§7) The trigeminal denervation was made only on the left eye side, while the trigeminal denervation on the right eye side or sham operation was not made
(§8) Two-week acclimation period was allowed to pass after the trigeminal denervation.
as §3, with “of 0.03% eye drop, 0.1% eye drop, and” for “of a”, “eye drop, which” for “eye drops, and the eye drops”, “test substances.” for “test substance.”, “the base” for “the vehicle”
(§9) From about 2 weeks after the trigeminal denervation, one of the above-mentioned drugs was instilled at the volume of 30 μL/eye four times a day for 2 consecutive weeks. Five eyes of each of the test substance groups and the control group were examined for the basal tear secretion and the keratoepithelial lesion as follows.
Before the start of instillation (Week 0), and 1 week and 2 weeks after instillation, the basal tear secretion was measured one hour after the second instillation on the day of examination.
Keratoconjunctiva was anesthetized by instillation of 4% lidocaine (Xylocaine® 4% for ophthalmology: Fujisawa Pharmaceutical Co., Ltd.), and the eye drop and the tear around the eyelid were wiped off about 5 minutes later.
When loss of keratoconjunctival esthesia was confirmed with the Cochet-Bonnet type esthesiometer, the edge of the Shirmer's test paper was kept inserted into the conjunctival sac for 5 minutes, and the length of the moistened part was read from the scale on the paper.
The basal tear secretion was expressed by the mean per minute calculated from the 4-minute-value obtained by subtraction of the first-1-minute-value from the 5-minute-value of the Shirmer's test, so that the volume of the tear considered to be retained in the conjunctival sac might be excluded.

[6] = test system: rabbits with dry eye syndrome induced by trigeminal denervation; experiment: Keratoepithelial lesion score in rabbits with dry eye syndrome induced by trigeminal denervation
Description: as §4, §5, §6, §7, §8
as §3, with “of 0.03% eye drop, 0.1% eye drop, and” for “of a”, “eye drop, which” for “eye drops, and the eye drops”, “test substances.” for “test substance.”, “the base” for “the vehicle”
as §9
Before the start of instillation (Week 0), and 1 week and 2 weeks after instillation, the lesion was evaluated one hour after the first instillation on the day of examination.
Each animal was placed in a stainless steel fixator, and given instillation of 50 μL of the mixture of 1% rose bengal and 1% fluorescein, followed by vital staining of the keratoconjunctival epithelium for evaluation of the extent of lesion according to the scoring system shown in Table 5.

[7] = after 4 weeks, 0.3% eye drops, 30 μL/eye four times a day
[8] = before alloxan (baseline), 0.3% eye drops group

O=C(O)Cn1c(=O)n(Cc2ccc(Br)cc2F)c(=O)c2ccc(Cl)cc21 [compound of the formula (II), [3-(4-bromo-2-fluorobenzyl)-7-chloro-2,4-dioxo-1,2,3,4-tetrahydroquinazolin-1-yl]acetate]
Relative area of wound of keratoepithelial detachment 12 hours after keratoepithelial detachment [1]: 89.0 ± 2.7 % | Relative area of wound of keratoepithelial detachment 12 hours after keratoepithelial detachment [2]: 80.8 ± 2.0 % | Corneal esthesia value (number of blink reflex on 10 stimulations) ([3]; after 2 weeks, 0.3% eye drops, 30 μL/eye four times a day): 5.3 ± 0.7 number of times | Corneal esthesia value (number of blink reflex on 10 stimulations) [3, 7]: 5.1 ± 0.6 number of times | Corneal esthesia value (number of blink reflex on 10 stimulations) [3, 8]: 5.6 ± 0.3 number of times | tear secretion (Schirmer's test) [4, 7]: 7.1 ± 0.4 mm | tear secretion (Schirmer's test) [4, 8]: 8.3 ± 0.6 mm | Basal tear secretion ([5]; 0.03% eye drop group, before instillation (baseline)): 0.38 ± 0.09 mm/minute | Basal tear secretion ([5]; 0.03% eye drop, 30 μL/eye four times a day, week 1): 0.92 ± 0.17 mm/minute | Basal tear secretion ([5]; 0.03% eye drop, 30 μL/eye four times a day, week 2): 1.02 ± 0.09 mm/minute | Basal tear secretion ([5]; 0.1% eye drop group, before instillation (baseline)): 0.38 ± 0.13 mm/minute | Basal tear secretion ([5]; 0.1% eye drop, 30 μL/eye four times a day, week 1): 1.24 ± 0.14 mm/minute | Basal tear secretion ([5]; 0.1% eye drop, 30 μL/eye four times a day, week 2): 1.12 ± 0.11 mm/minute | Basal tear secretion ([5]; 0.3% eye drop group, before instillation (baseline)): 0.34 ± 0.10 mm/minute | Basal tear secretion ([5]; 0.3% eye drop, 30 μL/eye four times a day, week 1): 1.24 ± 0.16 mm/minute | Basal tear secretion ([5]; 0.3% eye drop, 30 μL/eye four times a day, week 2): 1.20 ± 0.15 mm/minute | Keratoepithelial lesion ([6]; 0.03% eye drop group, before instillation (baseline), score 0-4 by stained area (Table 5)): 2.8 ± 0.4 score | Keratoepithelial lesion ([6]; 0.03% eye drop, four times a day, week 1, score 0-4 (Table 5)): 0.5 ± 0.4 score | Keratoepithelial lesion ([6]; 0.03% eye drop, four times a day, week 2, score 0-4 (Table 5)): 0.2 ± 0.1 score | Keratoepithelial lesion ([6]; 0.1% eye drop group, before instillation (baseline), score 0-4 (Table 5)): 3.0 ± 0.6 score | Keratoepithelial lesion ([6]; 0.1% eye drop, four times a day, week 1, score 0-4 (Table 5)): 0.4 ± 0.2 score | Keratoepithelial lesion ([6]; 0.1% eye drop, four times a day, week 2, score 0-4 (Table 5)): 0.4 ± 0.2 score | Keratoepithelial lesion ([6]; 0.3% eye drop group, before instillation (baseline), score 0-4 (Table 5)): 3.0 ± 0.5 score | Keratoepithelial lesion ([6]; 0.3% eye drop, four times a day, week 1, score 0-4 (Table 5)): 0.5 ± 0.4 score | Keratoepithelial lesion ([6]; 0.3% eye drop, four times a day, week 2, score 0-4 (Table 5)): 0.1 ± 0.1 score
